From patent publication US8003698B2, “Site-specific inhibitors of histone methyltransferase (HMTASE) and process of preparation thereof” (Jawaharlal Nehru Centre for Advanced Scientific Research, priority 2006, dated 2011)
Where two headings read alike, the source gives them in different places.

Experiments:
[1] = molecular target: histone acetyltransferase PCAF (Homo sapiens, UniProt Q92831); assay: Filterbinding and gel (fluorography) HAT assay against PCAF; format: biochemical
Excerpt: (§1) FIG. 1a: Effect of LTK20 on Histone Modifying Enzymes (Filterbinding Assay) Filterbinding Assay of LTK20 carried out with the Histone acetyltransferases p300, PCAF and Histone methyltransferases CARM1, G9a. Lane 1—histones alone, lane 2—Enzyme control, lane 3—DMSO control, lane 4-5, LTK20 in increasing concentration.
(§2) FIG. 1b: Effect of LTK20 on Histone Modifying Enzymes (Fluorography) Gel Assay of LTK20 carried out with Histone acetyltransferases p300, PCAF and Histone methyltransferases CARM1, G9a. Lane 1—histones alone, lane 2—Enzyme control, lane 3—DMSO control, lane 4 & 5—LTK20 in increasing concentration.
(§3) (2,3,7,8-TETRAHYDROXY[1]BENZOPYRANO[5,4,3(DE)[1]BENZOPYRAN5,10-DIONE) was identified as a specific inhibitor of the arginine methyltransferase CARM1 with an IC50 of 20 μM, both by filterbinding (FIG. 1a) and fluorography assays (FIG. 1b).

histone H3 = histone H3 (Homo sapiens, UniProt P68431); assay: Isothermal Calorimetric Titration with substrate histone H3; format: binding; conditions: substrate in cell titrated against inhibitor
Excerpt: FIG. 2: Binding Isotherm of Histone H3 with LTK20 Isothermal Calorimetric Titration carried out with the protein histone H3 and the ligand LTK20, which is the inhibitor.
(§4) The pattern of inhibition is uncompetitive indicating the mode of inhibition is via the Enzyme-Substrate complex, the binding of the inhibitor has been characterized by Isothermal Calorimetric Titration wherein either the substrate (histone H3) or enzyme (CARM1) was taken in the cell and titrated against the inhibitor (2,3,7,8TETRAHYDROXY[1]BENZOPYRANO[5,4,3(DE)[1]BENZOPYRAN5,10-DIONE).

U2OS cells = assay: Modulation of p53 and p21 protein levels in U2OS cells by western analysis; format: cell-based; conditions: for p21 levels: UV irradiated U2OS cells, vs DMSO control
Excerpt: FIG. 4: Immunoblot Analysis with p21 Antibody UV irradiated U2OS cells treated with or without inhibitors. The lysate was probed with antibody against p21. p21 levels show an increase in the presence of LTK20 as compared to the DMSO control.
Physiological effect of the inhibitor was characterized by selecting the p53 system, since CARM1 mediated histone methylation is known to cooperatively enhance the transcriptional activation of p53 responsive genes. […] U2OS, which is a p53 positive cell line was used for the assay, and on treatment with molecule at 50 μM concentration for a period of 24 hours, p53 levels were altered. Since, the p53 responsive genes had to be assayed, p21 was selected (there is no apoptosis, therefore the apoptosis genes were not selected). UV irradiated cells were treated with (2,3,7,8-TETRAHYDROXY[1]BENZOPYRANO[5,4,3(DE)[1]BENZOPYRAN5,10-DIONE) for a period of 24 hours and the lysate was probed with antibody against p21. […] This clearly indicates a possible implication of this molecule in the tumor suppressor p53 mediated transcriptional activation.

CARM1 [2] = molecular target: T1, CARM1 (Homo sapiens, UniProt Q86X55); assay: Isothermal Calorimetric Titration with enzyme CARM1; format: binding; conditions: enzyme in cell titrated against inhibitor
T1 sequence (Q86X55 1-608): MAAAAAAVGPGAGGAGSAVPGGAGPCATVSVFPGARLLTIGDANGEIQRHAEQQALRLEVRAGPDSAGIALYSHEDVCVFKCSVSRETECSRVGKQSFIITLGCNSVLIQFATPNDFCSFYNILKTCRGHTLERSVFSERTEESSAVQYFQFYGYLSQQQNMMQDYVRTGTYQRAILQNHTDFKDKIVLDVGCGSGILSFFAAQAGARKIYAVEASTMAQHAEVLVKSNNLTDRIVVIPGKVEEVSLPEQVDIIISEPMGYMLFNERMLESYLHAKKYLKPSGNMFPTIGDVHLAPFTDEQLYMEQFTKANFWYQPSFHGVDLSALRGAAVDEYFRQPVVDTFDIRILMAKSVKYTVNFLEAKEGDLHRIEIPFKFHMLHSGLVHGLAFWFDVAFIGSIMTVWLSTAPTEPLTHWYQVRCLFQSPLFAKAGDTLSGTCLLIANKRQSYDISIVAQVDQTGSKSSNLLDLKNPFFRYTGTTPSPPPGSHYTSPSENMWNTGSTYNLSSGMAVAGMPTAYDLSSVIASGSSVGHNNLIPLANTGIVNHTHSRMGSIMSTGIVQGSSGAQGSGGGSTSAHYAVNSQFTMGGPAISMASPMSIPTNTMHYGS
Excerpt: as §4

[3] = system: CARM1 methylation sites on histone H3, R17 and R26 in HeLa cells; assay: HeLa cells, immunofluorescence analysis; format: cell-based; conditions: 50 μM, 24 hours
Description: FIGS. 3c and 3d: Immunofluorescence Analysis of LTK20 Treated HeLa Cells
In vivo characterization was done by treating HeLa cells with the molecule at 50 μM concentration for a period of 24 hours, and the cells were probed with antibodies against CARM1 methylation sites on histone H3, R17 and R26 and were visualized by anti rabbit alexa fluor 488 antibody.

[4] = system: CARM1 methylation sites on histone H3, R17 and R26 in HeLa cells; assay: HeLa cells, western analysis of acid extracted histones; format: cell-based; conditions: for Methylation of H3R17: 50 μM, 24 hours
Description: (§5) FIGS. 3a and 3b: Preferential Inhibition of CARM1 Mediated Methylation Site-specific inhibition of arginine methylation of histone H3 observed in the presence of LTK20 both in vitro and in vivo. H3R17 and H3R26 are both CARM1 methylation sites on histone H3.
In vivo characterization was done by treating HeLa cells with the molecule at 50 μM concentration for a period of 24 hours, and the acid extracted histones were probed with antibodies against CARM1 methylation sites on histone H3, R17 and R26.

[5] = molecular target: T2, lysine methyltransferase G9a (Homo sapiens, UniProt Q96KQ7); assay: Filterbinding and gel (fluorography) HMTase assay against G9a; format: biochemical
T2 sequence (Q96KQ7 1-1210): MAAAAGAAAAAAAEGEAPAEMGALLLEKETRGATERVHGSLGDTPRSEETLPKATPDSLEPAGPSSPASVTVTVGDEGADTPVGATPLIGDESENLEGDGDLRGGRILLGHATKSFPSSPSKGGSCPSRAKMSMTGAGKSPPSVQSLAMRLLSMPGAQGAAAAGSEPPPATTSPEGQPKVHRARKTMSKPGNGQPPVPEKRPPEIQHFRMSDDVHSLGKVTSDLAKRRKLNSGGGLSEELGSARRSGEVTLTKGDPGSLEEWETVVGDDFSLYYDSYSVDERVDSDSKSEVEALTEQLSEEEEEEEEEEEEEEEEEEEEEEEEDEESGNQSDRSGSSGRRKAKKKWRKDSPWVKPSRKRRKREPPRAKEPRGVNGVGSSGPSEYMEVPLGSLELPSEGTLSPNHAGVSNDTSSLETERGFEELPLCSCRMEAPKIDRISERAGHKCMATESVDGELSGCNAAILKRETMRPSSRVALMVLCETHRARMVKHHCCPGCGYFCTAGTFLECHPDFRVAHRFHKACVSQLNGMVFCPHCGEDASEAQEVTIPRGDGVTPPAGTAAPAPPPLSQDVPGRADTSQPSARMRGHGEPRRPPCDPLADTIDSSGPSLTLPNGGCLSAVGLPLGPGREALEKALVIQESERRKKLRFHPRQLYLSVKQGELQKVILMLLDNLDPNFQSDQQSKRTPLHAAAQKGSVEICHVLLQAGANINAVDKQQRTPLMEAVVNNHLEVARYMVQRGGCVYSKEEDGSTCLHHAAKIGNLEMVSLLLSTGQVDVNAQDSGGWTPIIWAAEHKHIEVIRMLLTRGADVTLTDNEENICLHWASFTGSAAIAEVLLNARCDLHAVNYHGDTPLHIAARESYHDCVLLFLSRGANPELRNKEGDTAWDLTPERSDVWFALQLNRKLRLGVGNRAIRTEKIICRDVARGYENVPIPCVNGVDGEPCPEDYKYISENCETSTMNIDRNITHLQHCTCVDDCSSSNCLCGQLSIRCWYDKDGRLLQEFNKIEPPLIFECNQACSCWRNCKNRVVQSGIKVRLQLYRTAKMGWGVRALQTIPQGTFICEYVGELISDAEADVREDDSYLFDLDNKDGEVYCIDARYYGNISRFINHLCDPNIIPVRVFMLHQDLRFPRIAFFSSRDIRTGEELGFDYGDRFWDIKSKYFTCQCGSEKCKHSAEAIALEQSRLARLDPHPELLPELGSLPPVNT
Excerpt: as §1, §2, §3

[6] = molecular target: T3, arginine methyltransferase CARM1 (Homo sapiens, UniProt Q86X55); assay: Filterbinding and gel (fluorography) HMTase assay against CARM1; format: biochemical
T3 sequence (Q86X55 1-608): T1 sequence (Q86X55 1-608)
Excerpt: as §1, §2, §3

[7] = molecular target: histone acetyltransferase p300 (Homo sapiens, UniProt Q09472); assay: Filterbinding and gel (fluorography) HAT assay against p300; format: biochemical
histone acetyltransferase p300, sequence (Q09472 whole entry): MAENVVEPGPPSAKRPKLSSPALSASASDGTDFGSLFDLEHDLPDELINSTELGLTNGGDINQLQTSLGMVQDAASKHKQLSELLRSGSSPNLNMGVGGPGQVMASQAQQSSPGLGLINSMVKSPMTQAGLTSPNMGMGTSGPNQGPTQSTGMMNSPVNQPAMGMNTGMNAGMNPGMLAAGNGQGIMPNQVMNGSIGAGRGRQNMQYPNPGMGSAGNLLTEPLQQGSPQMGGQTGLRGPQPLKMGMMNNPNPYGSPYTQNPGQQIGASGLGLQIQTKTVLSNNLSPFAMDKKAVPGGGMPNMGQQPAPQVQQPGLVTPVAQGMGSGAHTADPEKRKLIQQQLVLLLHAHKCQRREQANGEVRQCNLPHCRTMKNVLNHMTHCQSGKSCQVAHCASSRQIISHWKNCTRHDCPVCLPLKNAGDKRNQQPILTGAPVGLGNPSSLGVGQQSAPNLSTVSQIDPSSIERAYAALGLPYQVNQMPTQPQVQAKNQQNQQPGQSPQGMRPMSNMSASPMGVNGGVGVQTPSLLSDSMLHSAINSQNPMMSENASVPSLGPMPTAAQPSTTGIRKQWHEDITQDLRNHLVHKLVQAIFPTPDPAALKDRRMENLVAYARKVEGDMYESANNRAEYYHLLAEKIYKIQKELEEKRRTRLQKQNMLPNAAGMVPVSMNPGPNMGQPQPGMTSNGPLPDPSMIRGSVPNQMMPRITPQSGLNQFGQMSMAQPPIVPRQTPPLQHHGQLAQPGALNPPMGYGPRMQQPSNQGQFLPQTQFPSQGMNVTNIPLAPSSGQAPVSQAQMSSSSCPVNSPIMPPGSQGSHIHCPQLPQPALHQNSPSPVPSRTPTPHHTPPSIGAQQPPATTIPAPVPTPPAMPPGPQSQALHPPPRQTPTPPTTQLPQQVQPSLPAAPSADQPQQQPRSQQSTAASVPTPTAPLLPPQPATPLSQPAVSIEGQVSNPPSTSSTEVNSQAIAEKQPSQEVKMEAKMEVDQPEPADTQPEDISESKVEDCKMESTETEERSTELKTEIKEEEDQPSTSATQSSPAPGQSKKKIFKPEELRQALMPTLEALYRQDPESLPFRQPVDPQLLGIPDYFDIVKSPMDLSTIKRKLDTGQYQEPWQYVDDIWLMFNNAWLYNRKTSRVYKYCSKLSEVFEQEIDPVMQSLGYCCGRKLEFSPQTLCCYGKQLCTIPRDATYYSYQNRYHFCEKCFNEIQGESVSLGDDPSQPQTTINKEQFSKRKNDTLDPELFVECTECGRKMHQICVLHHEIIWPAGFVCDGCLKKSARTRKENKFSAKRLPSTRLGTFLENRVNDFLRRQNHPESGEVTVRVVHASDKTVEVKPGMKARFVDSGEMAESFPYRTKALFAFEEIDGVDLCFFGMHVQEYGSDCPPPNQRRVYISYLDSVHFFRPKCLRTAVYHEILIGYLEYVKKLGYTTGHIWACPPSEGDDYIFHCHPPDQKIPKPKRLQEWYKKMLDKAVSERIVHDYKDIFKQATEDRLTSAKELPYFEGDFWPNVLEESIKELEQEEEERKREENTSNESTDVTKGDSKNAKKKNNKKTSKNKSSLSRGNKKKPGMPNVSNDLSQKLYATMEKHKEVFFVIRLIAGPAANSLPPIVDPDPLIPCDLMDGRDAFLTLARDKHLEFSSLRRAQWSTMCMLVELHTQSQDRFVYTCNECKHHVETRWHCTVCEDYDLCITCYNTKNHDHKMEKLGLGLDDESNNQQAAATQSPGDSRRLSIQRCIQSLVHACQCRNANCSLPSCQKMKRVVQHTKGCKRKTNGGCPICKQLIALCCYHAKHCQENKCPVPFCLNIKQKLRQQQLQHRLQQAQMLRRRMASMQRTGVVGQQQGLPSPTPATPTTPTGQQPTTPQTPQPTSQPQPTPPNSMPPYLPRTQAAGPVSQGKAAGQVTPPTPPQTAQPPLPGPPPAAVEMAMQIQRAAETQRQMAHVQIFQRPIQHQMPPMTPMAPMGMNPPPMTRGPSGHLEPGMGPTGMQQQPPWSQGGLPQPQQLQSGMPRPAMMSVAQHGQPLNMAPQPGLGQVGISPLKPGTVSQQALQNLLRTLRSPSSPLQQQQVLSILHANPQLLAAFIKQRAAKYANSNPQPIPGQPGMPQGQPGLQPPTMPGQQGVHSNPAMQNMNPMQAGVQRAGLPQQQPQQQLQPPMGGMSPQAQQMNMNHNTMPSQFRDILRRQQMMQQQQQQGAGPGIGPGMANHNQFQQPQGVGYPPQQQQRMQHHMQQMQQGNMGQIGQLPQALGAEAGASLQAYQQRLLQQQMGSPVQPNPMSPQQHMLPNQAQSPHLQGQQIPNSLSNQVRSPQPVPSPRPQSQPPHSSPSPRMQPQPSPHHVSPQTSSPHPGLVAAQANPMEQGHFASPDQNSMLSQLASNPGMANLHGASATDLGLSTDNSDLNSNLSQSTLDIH
Excerpt: as §1, §2, §3

CARM1 [8] = molecular target: T1, CARM1; assay: Kinetic analysis of the pattern of inhibition of CARM1 methylation of histone H3; format: biochemical; conditions: recombinant histone H3 and tritiated SAM varied; two inhibitor concentrations
Description: Since the inhibitor is specific to CARM1 mediated methylation of histones which is directed to the histone H3, histone H3 was used as the substrate for the kinetic analysis. Initially, the inhibition was confirmed using the recombinant histone as the substrate. CARM1 methylation reaction was carried out using increasing concentration of histone H3 and the methyl group donor, tritiated SAM keeping the enzyme concentration constant. Two different inhibitor concentrations were assayed.

[9] = molecular target: CARM1 methylation sites on histone H3, R17 and R26 (Homo sapiens, UniProt P68431); assay: In vitro CARM1 methylation reaction, western analysis with site-specific antibodies; format: biochemical
Description: as §5
In vitro CARM1 methylation reaction was carried out in the presence or absence of inhibitors, and probed with antibodies against the specific CARM1 methylation sites on histone H3, R17 and R26.

[10] = listed as (2,3,7,8-TETRAHYDROXY[1]BENZOPYRANO[5,4,3(DE)[1]BENZOPYRAN5,10-DIONE)
[11] = filterbinding, HeLa core histones

histone acetyltransferase PCAF, sequence (Q92831 whole entry): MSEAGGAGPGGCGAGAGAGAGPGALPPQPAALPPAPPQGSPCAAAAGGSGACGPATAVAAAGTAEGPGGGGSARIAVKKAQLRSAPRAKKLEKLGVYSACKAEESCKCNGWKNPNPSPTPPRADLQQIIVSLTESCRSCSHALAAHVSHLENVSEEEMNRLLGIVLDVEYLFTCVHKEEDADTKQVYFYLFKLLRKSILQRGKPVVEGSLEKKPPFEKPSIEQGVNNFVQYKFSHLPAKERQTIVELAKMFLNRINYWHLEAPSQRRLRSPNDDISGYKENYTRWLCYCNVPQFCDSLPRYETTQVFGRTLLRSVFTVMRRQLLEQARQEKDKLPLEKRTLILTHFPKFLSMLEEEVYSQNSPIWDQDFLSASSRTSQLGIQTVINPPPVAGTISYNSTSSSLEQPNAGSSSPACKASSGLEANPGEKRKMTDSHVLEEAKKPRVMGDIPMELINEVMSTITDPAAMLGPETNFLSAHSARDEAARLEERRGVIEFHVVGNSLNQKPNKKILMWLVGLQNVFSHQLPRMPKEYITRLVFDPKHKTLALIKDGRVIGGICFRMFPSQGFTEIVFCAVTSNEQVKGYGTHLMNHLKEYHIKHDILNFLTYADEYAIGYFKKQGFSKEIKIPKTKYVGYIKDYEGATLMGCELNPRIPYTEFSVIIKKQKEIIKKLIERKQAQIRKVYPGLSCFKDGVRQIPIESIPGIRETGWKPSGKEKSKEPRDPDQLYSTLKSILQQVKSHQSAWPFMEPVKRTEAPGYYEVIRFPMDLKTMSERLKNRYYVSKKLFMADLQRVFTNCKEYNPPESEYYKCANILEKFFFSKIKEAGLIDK

O=c1oc2c(O)c(O)cc3c(=O)oc4c(O)c(O)cc1c4c23 [LTK20, (2,3,7,8-TETRAHYDROXY[1]BENZOPYRANO [5,4,3(DE)[1]BENZOPYRAN 5,10-DIONE)]
Effect on PCAF activity (filterbinding assay) ([1]; filterbinding): does not act on other enzymes | Effect on PCAF activity (gel assay, fluorography) ([1]; fluorography): does not act on other enzymes | Binding to histone H3 (ITC) (histone H3): fits to the two sequential binding site model | Binding to histone H3 (ITC) (histone H3; listed as (2,3,7,8TETRAHYDROXY[1]BENZOPYRANO[5,4,3(DE)[1]BENZOPYRAN5,10-DIONE)): binds to the substrate at two sequential binding sites | Apoptosis (U2OS cells; U2OS cells): no apoptosis | p53 levels (U2OS cells; U2OS, 50 μM, 24 hours): altered | p21 levels (U2OS cells; 24 hours): increase | p21 levels (U2OS cells; 24 hours, listed as (2,3,7,8-TETRAHYDROXY[1]BENZOPYRANO[5,4,3(DE)[1]BENZOPYRAN5,10-DIONE)): increase in p21 levels | Binding to CARM1 (ITC) (CARM1 [2]): no binding of the molecule to the enzyme | Methylation of H3R17 [3]: Site-specific inhibition of H3R17 | Methylation of H3R26 [4]: getting methylated | Methylation of H3R17 [4]: inhibited | Methylation of H3R17 [4, 10]: Site-specific inhibition of H3R17 | Effect on G9a activity (filterbinding assay) [5, 11]: does not act on other enzymes | Effect on G9a activity (gel assay, fluorography) ([5]; fluorography): does not act on other enzymes | IC50 ([6]; HeLa core histones as substrate, both filterbinding and fluorography assays): 20 µM | Effect on CARM1 activity (filterbinding assay) [6, 11]: inhibits CARM1 activity | Effect on CARM1 activity (gel assay, fluorography) ([6]; fluorography): inhibits CARM1 activity | Effect on p300 activity (filterbinding assay) ([7]; filterbinding): does not act on other enzymes | Effect on p300 activity (gel assay, fluorography) ([7]; fluorography): does not act on other enzymes | Pattern of CARM1 methylation inhibition (CARM1 [8]): uncompetitive | Methylation of H3R17 [9]: inhibited | Methylation of H3R26 [9]: getting methylated | Methylation of H3R17 [9, 10]: Site-specific inhibition of H3R17
